{"source": "PubChem BioAssay AID1259407", "about": "(Chemical Carcinogenesis Research Information System (CCRIS), 2018)", "tested_on": "CCRIS mutagenicity, Ames/micronucleus/aberration tests", "assay": "CCRIS mutagenicity studies", "note": "Calls of active or inactive are those of the source. No rule for the calls is given here."}
{"molecule": "Cc1ccccc1N", "values": [{"measurement": "mutagenic call", "setting": "Test System: AMES SALMONELLA TYPHIMURIUM, Strain/Indicator: TA104, Metabolic Activation: HAMSTER, LIVER, S-9, SODIUM PHENOBARBITAL AND 5,6-BENZOFLAVONE, Method: PREINCUBATION", "value": "inactive; negative"}, {"measurement": "mutagenic call", "setting": "Test System: AMES SALMONELLA TYPHIMURIUM, Strain/Indicator: TA104, Metabolic Activation: NONE, Method: PREINCUBATION", "value": "inactive; negative"}, {"measurement": "mutagenic call", "setting": "Test System: AMES SALMONELLA TYPHIMURIUM, Strain/Indicator: TA1535, Metabolic Activation: HAMSTER LIVER S-9, AROCLOR 1254 (10%), Method: PREINCUBATION", "value": "inactive; negative"}, {"measurement": "mutagenic call", "setting": "Test System: AMES SALMONELLA TYPHIMURIUM, Strain/Indicator: TA1535, Metabolic Activation: HAMSTER, LIVER, S-9, AROCLOR 1254 (10%), Method: PREINCUBATION", "value": "inactive; negative"}, {"measurement": "mutagenic call", "setting": "Test System: AMES SALMONELLA TYPHIMURIUM, Strain/Indicator: TA1535, Metabolic Activation: HAMSTER, LIVER, S-9, SODIUM PHENOBARBITAL AND 5,6-BENZOFLAVONE, Method: PREINCUBATION", "value": "inactive; negative"}, {"measurement": "mutagenic call", "setting": "Test System: AMES SALMONELLA TYPHIMURIUM, Strain/Indicator: TA1535, Metabolic Activation: NONE, Method: PREINCUBATION", "value": "inactive; negative"}, {"measurement": "mutagenic call", "setting": "Test System: AMES SALMONELLA TYPHIMURIUM, Strain/Indicator: TA1535, Metabolic Activation: NONE, Method: STANDARD PLATE", "value": "inactive; negative"}, {"measurement": "mutagenic call", "setting": "Test System: AMES SALMONELLA TYPHIMURIUM, Strain/Indicator: TA1535, Metabolic Activation: RAT LIVER S-9, AROCLOR 1254 (10 OR 30%), Method: PREINCUBATION", "value": "inactive; negative"}, {"measurement": "mutagenic call", "setting": "Test System: AMES SALMONELLA TYPHIMURIUM, Strain/Indicator: TA1535, Metabolic Activation: RAT, LIVER, S-9, AROCLOR 1254 (10%), Method: PREINCUBATION", "value": "inactive; negative"}, {"measurement": "mutagenic call", "setting": "Test System: AMES SALMONELLA TYPHIMURIUM, Strain/Indicator: TA1535, Metabolic Activation: RAT, LIVER, S-9, AROCLOR 1254, Method: STANDARD PLATE", "value": "inactive; negative"}, {"measurement": "mutagenic call", "setting": "Test System: AMES SALMONELLA TYPHIMURIUM, Strain/Indicator: TA1537, Metabolic Activation: HAMSTER, LIVER, S-9, AROCLOR 1254 (10%), Method: PREINCUBATION", "value": "inactive; negative"}, {"measurement": "mutagenic call", "setting": "Test System: AMES SALMONELLA TYPHIMURIUM, Strain/Indicator: TA1537, Metabolic Activation: HAMSTER, LIVER, S-9, SODIUM PHENOBARBITAL AND 5,6-BENZOFLAVONE, Method: PREINCUBATION", "value": "inactive; negative"}, {"measurement": "mutagenic call", "setting": "Test System: AMES SALMONELLA TYPHIMURIUM, Strain/Indicator: TA1537, Metabolic Activation: NONE, Method: PREINCUBATION", "value": "inactive; negative"}, {"measurement": "mutagenic call", "setting": "Test System: AMES SALMONELLA TYPHIMURIUM, Strain/Indicator: TA1537, Metabolic Activation: NONE, Method: STANDARD PLATE", "value": "inactive; negative"}, {"measurement": "mutagenic call", "setting": "Test System: AMES SALMONELLA TYPHIMURIUM, Strain/Indicator: TA1537, Metabolic Activation: RAT, LIVER, S-9, AROCLOR 1254 (10%), Method: PREINCUBATION", "value": "inactive; negative"}, {"measurement": "mutagenic call", "setting": "Test System: AMES SALMONELLA TYPHIMURIUM, Strain/Indicator: TA1537, Metabolic Activation: RAT, LIVER, S-9, AROCLOR 1254, Method: STANDARD PLATE", "value": "inactive; negative"}, {"measurement": "mutagenic call", "setting": "Test System: AMES SALMONELLA TYPHIMURIUM, Strain/Indicator: TA1538, Metabolic Activation: NONE, Method: STANDARD PLATE", "value": "inactive; negative"}, {"measurement": "mutagenic call", "setting": "Test System: AMES SALMONELLA TYPHIMURIUM, Strain/Indicator: TA1538, Metabolic Activation: RAT, LIVER, S-9, AROCLOR 1254, Method: STANDARD PLATE", "value": "inactive; negative"}, {"measurement": "mutagenic call", "setting": "Test System: CHINESE HAMSTER OVARY, Strain/Indicator: CHO/6-THIOGUANINE, Metabolic Activation: HAMSTER EMBRYO CELL-MEDIATED", "value": "inactive; negative"}, {"measurement": "mutagenic call", "setting": "Test System: CHINESE HAMSTER OVARY, Strain/Indicator: CHO/6-THIOGUANINE, Metabolic Activation: NONE", "value": "inactive; negative"}, {"measurement": "mutagenic call", "setting": "Test System: CHINESE HAMSTER OVARY, Strain/Indicator: CHO/OUABAIN, Metabolic Activation: NONE", "value": "inactive; negative"}, {"measurement": "mutagenic call", "setting": "Test System: CHINESE HAMSTER V-79, Strain/Indicator: V-79 (HGPRT)/6-THIOGUANINE, Metabolic Activation: NONE", "value": "inactive; negative"}, {"measurement": "mutagenic call", "setting": "Test System: CHINESE HAMSTER V-79, Strain/Indicator: V-79 (HGPRT)/6-THIOGUANINE, Metabolic Activation: RAT, LIVER, S-9, PHENOBARBITAL AND BETA-NAPHTHOFLAVONE", "value": "inactive; negative"}, {"measurement": "mutagenic call", "setting": "Test System: CHINESE HAMSTER V-79, Strain/Indicator: V-79/6-THIOGUANINE, Metabolic Activation: NONE, Method: REPLATING", "value": "active; positive"}, {"measurement": "mutagenic call", "setting": "Test System: CHINESE HAMSTER V-79, Strain/Indicator: V-79/6-THIOGUANINE, Metabolic Activation: RAT, LIVER, S-9, PHENOBARBITAL AND 5,6-BENZOFLAVONE, Method: REPLATING", "value": "inactive; negative"}, {"measurement": "mutagenic call", "setting": "Test System: CHINESE HAMSTER V-79, Strain/Indicator: V-79/OUABAIN, Metabolic Activation: NONE", "value": "inactive; negative"}, {"measurement": "mutagenic call", "setting": "Test System: CHINESE HAMSTER V-79, Strain/Indicator: V-79/OUABAIN, Metabolic Activation: RAT, LIVER, S-15, PHENOBARBITAL AND 5,6-BENZOFLAVONE", "value": "inactive; negative"}, {"measurement": "mutagenic call", "setting": "Test System: E. COLI, Strain/Indicator: WP2UVRA/PKM101, Metabolic Activation: HAMSTER, LIVER, S-9, SODIUM PHENOBARBITAL AND 5,6-BENZOFLAVONE, Method: PREINCUBATION", "value": "inactive; negative"}, {"measurement": "mutagenic call", "setting": "Test System: E. COLI, Strain/Indicator: WP2UVRA/PKM101, Metabolic Activation: NONE, Method: PREINCUBATION", "value": "inactive; negative"}, {"measurement": "mutagenic call", "setting": "Test System: E. COLI, Strain/Indicator: WP2UVRA, Metabolic Activation: HAMSTER, LIVER, S-9, SODIUM PHENOBARBITAL AND 5,6-BENZOFLAVONE, Method: PREINCUBATION", "value": "inactive; negative"}, {"measurement": "mutagenic call", "setting": "Test System: E. COLI, Strain/Indicator: WP2 UVRA, Metabolic Activation: NONE, Method: PREINCUBATION", "value": "inactive; negative"}, {"measurement": "mutagenic call", "setting": "Test System: E. COLI, Strain/Indicator: WP2UVRA, Metabolic Activation: NONE, Method: PREINCUBATION", "value": "inactive; negative"}, {"measurement": "mutagenic call", "setting": "Test System: E. COLI, Strain/Indicator: WP2 UVRA, Metabolic Activation: RAT, LIVER, S-9, PHENOBARBITAL AND 5,6-BENZOFLAVONE, Method: PREINCUBATION", "value": "inactive; negative"}, {"measurement": "mutagenic call", "setting": "Test System: MOUSE LYMPHOMA, Strain/Indicator: L5178Y (TK+/+)/OUABAIN, Metabolic Activation: NONE, Method: SUSPENSION/PLATE", "value": "inactive; negative"}, {"measurement": "mutagenic call", "setting": "Test System: MOUSE LYMPHOMA, Strain/Indicator: L5178Y (TK+/+)/OUABAIN, Metabolic Activation: RAT LIVER S-9, AROCLOR 1254, Method: SUSPENSION/PLATE", "value": "inactive; negative"}, {"measurement": "mutagenic call", "setting": "Test System: MOUSE LYMPHOMA, Strain/Indicator: L5178Y (TK+/-)/TRIFLUROTHYMIDINE, Metabolic Activation: NONE, Method: SUSPENSION/PLATE", "value": "inactive; negative"}, {"measurement": "mutagenic call", "setting": "Test System: MOUSE LYMPHOMA, Strain/Indicator: L5178Y (TK+/-)/TRIFLUROTHYMIDINE, Metabolic Activation: RAT LIVER S-9, AROCLOR 1254, Method: SUSPENSION/PLATE", "value": "inactive; negative"}, {"measurement": "mutagenic call", "setting": "Test System: MOUSE LYMPHOMA, Strain/Indicator: L5178Y (TK+/TK-), Metabolic Activation: NONE, Method: SUSPENSION/PLATE", "value": "inactive; negative"}, {"measurement": "mutagenic call", "setting": "Test System: MOUSE LYMPHOMA, Strain/Indicator: L5178Y (TK+/TK-), Metabolic Activation: RAT, LIVER, S-9, Method: SUSPENSION/PLATE", "value": "inactive; negative"}, {"measurement": "mutagenic call", "setting": "Test System: UDS RAT HEPATOCYTES, Strain/Indicator: THY INCORP, Metabolic Activation: NONE, Method: LIQUID SCINTILLATION COUNTING", "value": "active; positive"}]}
